Consider two molecules from US8097443B2, “Nucleotidyltransferases with enhanced nucleotide triphosphate flexibility” (priority 2007, dated 2012).

T3 sequence (P26393 whole entry Q83A): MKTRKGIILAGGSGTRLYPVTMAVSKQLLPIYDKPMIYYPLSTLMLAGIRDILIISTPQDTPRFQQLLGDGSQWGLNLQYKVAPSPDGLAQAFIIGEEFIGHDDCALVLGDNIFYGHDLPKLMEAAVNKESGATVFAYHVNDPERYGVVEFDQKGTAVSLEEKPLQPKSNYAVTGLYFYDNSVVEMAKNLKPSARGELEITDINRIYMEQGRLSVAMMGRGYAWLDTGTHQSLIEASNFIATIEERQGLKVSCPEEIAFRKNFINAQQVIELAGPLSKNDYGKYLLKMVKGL

The target in one assay is T1, RmlA Q83N (Salmonella typhimurium, UniProt P26393, Q83N).
T1 construct: His6 (pET28a) (N); made in house; host or cells: Escherichia coli BL21 (DE3)
T1 sequence (P26393 whole entry Q83N): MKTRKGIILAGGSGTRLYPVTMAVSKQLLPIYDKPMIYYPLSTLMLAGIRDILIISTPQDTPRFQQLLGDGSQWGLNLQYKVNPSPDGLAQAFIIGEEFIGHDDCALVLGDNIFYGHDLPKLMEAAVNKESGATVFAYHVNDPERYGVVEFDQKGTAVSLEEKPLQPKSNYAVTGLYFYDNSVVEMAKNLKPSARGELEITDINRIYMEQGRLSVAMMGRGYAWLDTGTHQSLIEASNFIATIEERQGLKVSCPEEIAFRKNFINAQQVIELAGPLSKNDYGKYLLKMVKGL
Nature of the assay: Relative activity of RmlA mutant Q83N with alternative NTPs. The class given is biochemical, Salmonella enterica typhimurium LT2. Conditions: 10 mM Glucose-1-phosphate, 0.1-10 μM enzyme, 5 mM NTP, 10 mM MgCl2, pH 8.0, 37° C. The source says: (§1) RmlA mutagenesis—RmlA mutants were generated with the Quikchange mutagenesis kit (Stratagene, La Jolla, Calif., USA) using the wt RmlA-pET28a parent expression plasmid as the template and the primers indicated in Table 1. Individual progeny plasmids were confirmed by DNA sequencing to carry the desired mutations. Driven by these mutant plasmids, the corresponding RmlA variants were subsequently expressed and purified as described above.
(§2) Enzymatic Reactions—The enzyme assay was accomplished via slight modification of previously reported methods (Jiang et al. (2000) J. Am. Chem. Soc. 122, 6803-6804; Jiang et al. (2001) Angew. Chem., Int. Ed. 40, 1502-1505; Jiang et al. (2003) Chem Bio Chem 4, 443-446; Barton et al. (2002) Proc. Natl. Acad. Sci. U.S.A. 99, 13397-13402). In a typical reaction, sugar-1-phosphate (10 mM final) and enzyme (0.01-50 μM) were mixed with NTP (0.01-40 mM) in the presence of MgCl2 ([NTP]+5 mM) and 10 U/mL inorganic pyrophosphatase (Sigma, St. Louis, Mo., USA) in 100 mM Tris HCl, pH 8.0 (20 μL final volume). Typical reactions were analyzed after 10 min at 37° C. and reaction times were extended for some slow reacting sugar/NTP combinations. Reactions were stopped by the addition of 80 μL prewarmed HPLC buffer and heat inactivation (95° C., 5 min). The amount of enzyme used and the incubation time was adjusted so that the reactions never proceeded to more than 10% turnover for kinetics, or 30% for activity assays.
(§3) Product Characterization—Reactions were analyzed via analytical HPLC (Supelcosil LC18-T; Supelco, Bellefonte, Pa.; 5 μm, 250×3 mm, 40 mM phosphoric acid, pH 6.5 with triethylamine, with a gradient of 0-10% MeOH over 20 min, 0.8 mL/min, A254). Due to earlier elution, a 5 min 0% MeOH isocratic hold was performed prior to starting the gradient for CTP-containing reactions. For nucleotide sugar products with commercially available standards, HPLC peak identity was confirmed by co-elution.
As to `Nc1ncnc2c1ncn2[C@@H]1O[C@H](COP(=O)(O)OP(=O)(O)OP(=O)(O)O)[C@@H](O)[C@H]1O` [ATP, adenosine-5′-triphosphate], the “Relative activity of Q83N as compared to wt RmlA” value came out at 6.5.

For the molecule `Nc1ccn([C@@H]2O[C@H](COP(=O)(O)OP(=O)(O)OP(=O)(O)O)[C@@H](O)[C@H]2O)c(=O)n1` [CTP, cytidine-5′-triphosphate], the “Relative activity of Q83N as compared to wt RmlA” value is recorded as 0.7.

The target of the next assay is T2, RmlA Q83S (Salmonella typhimurium, UniProt P26393, Q83S).
T2 construct: His6 (pET28a) (N); made in house; host or cells: Escherichia coli BL21 (DE3)
T2 sequence (P26393 whole entry Q83S): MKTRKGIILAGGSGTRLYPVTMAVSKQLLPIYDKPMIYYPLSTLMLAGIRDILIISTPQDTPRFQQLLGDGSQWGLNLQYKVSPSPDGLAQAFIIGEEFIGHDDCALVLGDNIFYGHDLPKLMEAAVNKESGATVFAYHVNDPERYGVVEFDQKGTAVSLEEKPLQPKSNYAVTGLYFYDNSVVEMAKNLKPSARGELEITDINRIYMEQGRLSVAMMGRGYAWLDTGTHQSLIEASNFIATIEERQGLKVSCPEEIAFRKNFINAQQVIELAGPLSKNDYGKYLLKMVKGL
Nature of the assay: Relative activity of RmlA mutant Q83S with alternative NTPs. The class given is biochemical, Salmonella enterica typhimurium LT2. Conditions: 10 mM Glucose-1-phosphate, 0.1-10 μM enzyme, 5 mM NTP, 10 mM MgCl2, pH 8.0, 37° C.
From the text: as §1, §2, §3
With `Nc1ncnc2c1ncn2[C@@H]1O[C@H](COP(=O)(O)OP(=O)(O)OP(=O)(O)O)[C@@H](O)[C@H]1O` [ATP, adenosine-5′-triphosphate], the “Relative activity of Q83S as compared to wt RmlA” value stood at 14.0.

As for `Nc1ccn([C@@H]2O[C@H](COP(=O)(O)OP(=O)(O)OP(=O)(O)O)[C@@H](O)[C@H]2O)c(=O)n1` [CTP, cytidine-5′-triphosphate], the “Relative activity of Q83S as compared to wt RmlA” value was found to be 1.5.

A further assay deals with wt RmlA (glucose-1-phosphate thymidylyltransferase) (Salmonella typhimurium, UniProt P26393).
Chain of wt RmlA (glucose-1-phosphate thymidylyltransferase) (P26393 whole entry): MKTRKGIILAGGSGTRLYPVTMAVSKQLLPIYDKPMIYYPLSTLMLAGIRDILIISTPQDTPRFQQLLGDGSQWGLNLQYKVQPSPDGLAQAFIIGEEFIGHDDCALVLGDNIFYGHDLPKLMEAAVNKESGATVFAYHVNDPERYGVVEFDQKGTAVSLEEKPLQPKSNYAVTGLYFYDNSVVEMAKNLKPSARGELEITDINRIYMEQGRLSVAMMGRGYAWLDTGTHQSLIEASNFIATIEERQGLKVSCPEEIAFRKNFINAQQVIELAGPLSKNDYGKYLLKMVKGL
Test: not given
Conditions: not given
As for the experimental part: as §2
(§4) Product Characterization—Reactions were analyzed via analytical HPLC (Supelcosil LC18-T; Supelco, Bellefonte, Pa.; 5 μm, 250×3 mm, 40 mM phosphoric acid, pH 6.5 with triethylamine, with a gradient of 0-10% MeOH over 20 min, 0.8 mL/min, A254). Due to earlier elution, a 5 min 0% MeOH isocratic hold was performed prior to starting the gradient for CTP-containing reactions.
(§5) Kinetic Measurements—Pseudo first order kinetics were obtained by fixing glucose-1-phosphate at a saturating concentration of 10 mM (Barton et al. (2001) Nat Struct Biol 8, 545-551), and titrating NTPs. At least eight different concentrations in the range of ¼×KM to 4×KM (0.09-20 mM for dTTP, 0.2-40 mM for others) were assayed in triplicate. […] Activities were corrected for time and enzyme concentrations, and the kinetic curves were fit to the Michaelis-Menton equation using SigmaPlot with the Enzyme Kinetics module (SPSS, Chicago, Ill., USA).
As for `Nc1ncnc2c1ncn2[C@@H]1O[C@H](COP(=O)(O)OP(=O)(O)OP(=O)(O)O)[C@@H](O)[C@H]1O` [ATP, adenosine-5′-triphosphate], the “reduction in the apparent RmlA specificity constant (kcat/KM) versus dTTP” value was > 15,000 fold.

A further assay has as its system UDP-sugar pyrophosphorylase (Usp).
Test: not given
Conditions: Thermus caldophilus Usp, literature; cited from earlier work.
As for `Nc1ncnc2c1ncn2[C@@H]1O[C@H](COP(=O)(O)OP(=O)(O)OP(=O)(O)O)[C@@H](O)[C@H]1O` [ATP, adenosine-5′-triphosphate], the “turnover of glucose-1-phosphate with NTP by Usp” value is recorded as “turn over”.

For `Nc1ccn([C@@H]2O[C@H](COP(=O)(O)OP(=O)(O)OP(=O)(O)O)[C@@H](O)[C@H]2O)c(=O)n1` [CTP, cytidine-5′-triphosphate], the “turnover of glucose-1-phosphate with NTP by Usp” value was “turn over”.

The next assay has as its target T3, RmlA Q83A (Salmonella typhimurium, UniProt P26393, Q83A).
T3 construct: His6 (pET28a) (N); made in house; host or cells: Escherichia coli BL21 (DE3)
Nature of the assay: Relative activity of RmlA mutant Q83A with alternative NTPs. In kind it is biochemical, Salmonella enterica typhimurium LT2. The note with it: 10 mM Glucose-1-phosphate, 0.1-10 μM enzyme, 5 mM NTP, 10 mM MgCl2, pH 8.0, 37° C.
From the text: as §1, §2, §3
On to `Nc1ncnc2c1ncn2[C@@H]1O[C@H](COP(=O)(O)OP(=O)(O)OP(=O)(O)O)[C@@H](O)[C@H]1O` [ATP, adenosine-5′-triphosphate], for which the “Relative activity of Q83A as compared to wt RmlA” value turned out to be 7.9.

On to `Nc1ccn([C@@H]2O[C@H](COP(=O)(O)OP(=O)(O)OP(=O)(O)O)[C@@H](O)[C@H]2O)c(=O)n1` [CTP, cytidine-5′-triphosphate], for which the “Relative activity of Q83A as compared to wt RmlA” value is 1.3.

In another assay the target is T4, RmlA Q83D (Salmonella typhimurium, UniProt P26393, Q83D).
T4 construct: using BSA as a standard, and a molecular mass of 34.6 kDa; His6 (pET28a) (N); made in house; host or cells: Escherichia coli BL21 (DE3)
T4 sequence (P26393 whole entry Q83D): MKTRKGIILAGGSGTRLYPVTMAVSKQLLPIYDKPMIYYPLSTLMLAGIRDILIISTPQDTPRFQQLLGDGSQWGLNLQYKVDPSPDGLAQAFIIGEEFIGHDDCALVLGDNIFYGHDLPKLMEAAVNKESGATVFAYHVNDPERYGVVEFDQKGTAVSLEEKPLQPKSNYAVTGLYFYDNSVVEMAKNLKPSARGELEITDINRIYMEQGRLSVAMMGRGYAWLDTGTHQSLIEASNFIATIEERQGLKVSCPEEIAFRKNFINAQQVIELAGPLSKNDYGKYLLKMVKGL
Nature of the assay: Relative activity of RmlA mutant Q83D with alternative NTPs. The class given is biochemical, Salmonella enterica typhimurium LT2. The note with it: 10 mM Glucose-1-phosphate, 0.1-10 μM enzyme, 5 mM NTP, 10 mM MgCl2, pH 8.0, 37° C.
From the text: as §1, §2, §3
Take `Nc1ncnc2c1ncn2[C@@H]1O[C@H](COP(=O)(O)OP(=O)(O)OP(=O)(O)O)[C@@H](O)[C@H]1O` [ATP, adenosine-5′-triphosphate]: the “Relative activity of Q83D as compared to wt RmlA” value was 0.6.

As for `Nc1ccn([C@@H]2O[C@H](COP(=O)(O)OP(=O)(O)OP(=O)(O)O)[C@@H](O)[C@H]2O)c(=O)n1` [CTP, cytidine-5′-triphosphate], the “Relative activity of Q83D as compared to wt RmlA” value turned out to be 0.2.

The target of a further assay is T5, RmlA Q83E (Salmonella typhimurium, UniProt P26393, Q83E).
T5 construct: His6 (pET28a) (N); made in house; host or cells: Escherichia coli BL21 (DE3)
T5 sequence (P26393 whole entry Q83E): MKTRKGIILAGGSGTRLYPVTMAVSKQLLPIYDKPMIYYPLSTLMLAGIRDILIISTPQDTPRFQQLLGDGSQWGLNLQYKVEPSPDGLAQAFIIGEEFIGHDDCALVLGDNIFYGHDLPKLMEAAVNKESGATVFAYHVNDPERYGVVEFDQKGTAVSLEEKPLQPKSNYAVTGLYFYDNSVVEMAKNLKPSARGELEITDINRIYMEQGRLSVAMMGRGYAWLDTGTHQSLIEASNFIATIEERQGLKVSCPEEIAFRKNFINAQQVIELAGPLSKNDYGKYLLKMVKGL
Nature of the assay: Relative activity of RmlA mutant Q83E with alternative NTPs. In kind it is biochemical, Salmonella enterica typhimurium LT2. Conditions: 10 mM Glucose-1-phosphate, 0.1-10 μM enzyme, 5 mM NTP, 10 mM MgCl2, pH 8.0, 37° C.
From the text: as §1, §2, §3
Consider `Nc1ncnc2c1ncn2[C@@H]1O[C@H](COP(=O)(O)OP(=O)(O)OP(=O)(O)O)[C@@H](O)[C@H]1O` [ATP, adenosine-5′-triphosphate], for which the “Relative activity of Q83E as compared to wt RmlA” value was 0.7.

For `Nc1ccn([C@@H]2O[C@H](COP(=O)(O)OP(=O)(O)OP(=O)(O)O)[C@@H](O)[C@H]2O)c(=O)n1` [CTP, cytidine-5′-triphosphate], the “Relative activity of Q83E as compared to wt RmlA” value is 0.8.

The target in the next assay is T2, RmlA Q83S. Nature of the assay: Pseudo first order kinetics of RmlA Q83S mutant. In kind it is biochemical, Salmonella enterica typhimurium LT2. The note with it: 10 mM glucose-1-phosphate, 0.05-25 μM enzyme, [NTP] + 5 mM MgCl2, 100 mM Tris-HCl pH 8.0, 37° C.
From the text: Driven by these mutant plasmids, the corresponding RmlA variants were subsequently expressed and purified as described above.
as §2, §4, §5
Take `Nc1ncnc2c1ncn2[C@@H]1O[C@H](COP(=O)(O)OP(=O)(O)OP(=O)(O)O)[C@@H](O)[C@H]1O` [ATP, adenosine-5′-triphosphate]: the “kcat^app” value came to 0.48 ± 0.0233 s⁻¹.

Staying with this assay, now noted: 10 mM glucose-1-phosphate, 0.05-25 μM enzyme, [NTP] + 5 mM MgCl2, 100 mM Tris-HCl pH 8.0, 37° C., read-out: KM^app.
In the case of `Nc1ncnc2c1ncn2[C@@H]1O[C@H](COP(=O)(O)OP(=O)(O)OP(=O)(O)O)[C@@H](O)[C@H]1O` [ATP, adenosine-5′-triphosphate], the Km – broadly, the concentration of substrate that gives half-maximal velocity – was 3.4 ± 0.6 mM.

In a further assay the target is ST0452 (Sulfurisphaera tokodaii, UniProt Q975F9).
Chain of ST0452 (Q975F9 whole entry): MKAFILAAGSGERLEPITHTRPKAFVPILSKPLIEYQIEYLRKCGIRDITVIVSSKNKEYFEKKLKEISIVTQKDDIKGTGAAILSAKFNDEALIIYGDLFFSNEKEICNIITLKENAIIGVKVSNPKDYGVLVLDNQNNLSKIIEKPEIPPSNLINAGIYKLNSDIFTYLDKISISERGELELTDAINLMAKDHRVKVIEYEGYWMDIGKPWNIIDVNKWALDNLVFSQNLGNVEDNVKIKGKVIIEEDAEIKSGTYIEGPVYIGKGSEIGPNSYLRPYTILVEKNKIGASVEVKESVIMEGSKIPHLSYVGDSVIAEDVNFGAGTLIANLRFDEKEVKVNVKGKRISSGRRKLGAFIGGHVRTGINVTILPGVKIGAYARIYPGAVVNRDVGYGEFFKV
Test: not given
The note with it: Sulfolobus tokodaii ST0452, literature; cited from earlier work.
Consider `Nc1ncnc2c1ncn2[C@@H]1O[C@H](COP(=O)(O)OP(=O)(O)OP(=O)(O)O)[C@@H](O)[C@H]1O` [ATP, adenosine-5′-triphosphate], for which the “utilization of NTP by ST0452” value is “could not utilize”.

In the case of `Nc1ccn([C@@H]2O[C@H](COP(=O)(O)OP(=O)(O)OP(=O)(O)O)[C@@H](O)[C@H]2O)c(=O)n1` [CTP, cytidine-5′-triphosphate], the “utilization of NTP by ST0452” value is listed as “could not utilize”.
